These results are taken from ChEMBL document CHEMBL1130534, “Potent antiinflammatory 3-thiazole-4(5)-acetic acids of 1,2-benzisothiazole” (1997).

Format in all cases: functional
The test system of experiment [1] is Rattus norvegicus. The experiment is described as follows: Compound (50 mg/kg) administered intraperitoneally was tested for antiinflammatory activity in carrageenan induced rat paw edema assay after 2 hours.
The test system of experiment [2] is Rattus norvegicus. The experiment in a line: Compound (50 mg/kg) administered intraperitoneally was tested for antiinflammatory activity in carrageenan induced rat paw edema assay after 3.5 hours. (Carrageenan injected into the paw causes an acute inflammation.)
Experiment [3] relates to Rattus norvegicus. The experiment in a line: Compound (50 mg/kg) administered orally was tested for antiinflammatory activity in carrageenan-induced rat paw edema assay after 2 hours.
Experiment [4] deals with Rattus norvegicus. The experiment is described as follows: Compound administered intraperitoneally was tested for antiinflammatory activity in carrageenan-induced rat paw edema assay after 3.5 hours. Further details: concentration or dose not given beside the values.
For experiment [5], the system named is Rattus norvegicus. The experiment in a line: Compound administered orally was tested for antiinflammatory activity in carrageenan-induced rat paw edema assay after 2 hours. The arrangement: concentration or dose not given beside the values.
Experiment [6] has as its system Rattus norvegicus. The experiment in a line: Compound administered orally was tested for antiinflammatory activity in carrageenan-induced rat paw edema assay after 3.5 hours. The arrangement: concentration or dose not given beside the values.
In experiment [7] the test system is Rattus norvegicus. The experiment is described as follows: Compound administered intraperitoneally was tested for antiinflammatory activity in carrageenan-induced rat paw edema assay after 2 hours. Further details: concentration or dose not given beside the values.

“And” between values parts separate entries of the source, which are not always exact repeats. Equal values may be shown once.

On to `O=C(O)Cc1sc(-c2nsc3ccccc23)nc1-c1ccc(Cl)cc1`, for which the Inhibition in the experiment with Rattus norvegicus [1] is 76%; with Rattus norvegicus [2], 64%; with Rattus norvegicus [3], 69%; in the experiment on Rattus norvegicus [4] it was 67%; in the experiment on Rattus norvegicus [5], 75%; in the experiment on Rattus norvegicus [6] it was 62% and 61%. Also, in the experiment with Rattus norvegicus [7], the Inhibition is 78%.

As for `CCOC(=O)Cc1sc(-c2nsc3ccccc23)nc1-c1ccc(OC)cc1`, the Inhibition worked out at 30% with Rattus norvegicus [4], 20% in the experiment with Rattus norvegicus [5], 29% in the experiment on Rattus norvegicus [6] and 34% in the experiment on Rattus norvegicus [7].

Consider `O=C(O)Cc1csc(-c2nsc3ccccc23)n1`, for which the Inhibition in the experiment on Rattus norvegicus [4] amounted to 64%; with Rattus norvegicus [5], 64%; with Rattus norvegicus [6] it was 46%; with Rattus norvegicus [7] it was 55%.

In the case of `O=C(O)Cc1sc(-c2nsc3ccccc23)nc1-c1ccccc1`, the Inhibition is recorded as 7% in the experiment on Rattus norvegicus [4], 15% in the experiment with Rattus norvegicus [5], 19% with Rattus norvegicus [6] and 45% in the experiment on Rattus norvegicus [7].

`CCOC(=O)Cc1sc(-c2nsc3ccccc23)nc1-c1ccccc1`: the Inhibition is less than 10% with Rattus norvegicus [4], less than 10% in the experiment on Rattus norvegicus [5], 11% in the experiment with Rattus norvegicus [6] and less than 10% in the experiment with Rattus norvegicus [7].

Regarding `CCOC(=O)Cc1sc(-c2nsc3ccccc23)nc1-c1ccc(Cl)cc1`, the Inhibition was 13% with Rattus norvegicus [4], 34% with Rattus norvegicus [5], 22% in the experiment on Rattus norvegicus [6] and 24% in the experiment on Rattus norvegicus [7].

As to `CCOC(=O)Cc1csc(-c2nsc3ccccc23)n1`, the Inhibition in the experiment with Rattus norvegicus [5] was 18%; with Rattus norvegicus [6], 11%.

`COc1ccc(-c2nc(-c3nsc4ccccc34)sc2CC(=O)O)cc1`: the Inhibition in the experiment with Rattus norvegicus [4] amounted to 24%; in the experiment with Rattus norvegicus [5], 36%; in the experiment on Rattus norvegicus [6] it was 33%; in the experiment on Rattus norvegicus [7] it was 40%.

Consider `CC(C)Cc1ccc(C(C)C(=O)O)cc1` (configuration not stated) [IBUPROFEN], for which the Inhibition in the experiment with Rattus norvegicus [4] was found to be 74%; with Rattus norvegicus [5] it was 62%; with Rattus norvegicus [6], 65%; in the experiment with Rattus norvegicus [7], 70%.

Broadly, the Inhibition is the share of the control response that was lost under treatment.
